# Reference: patent US12312599B2, “Methods, compositions, and kits for producing beige adipocytes and treating metabolic disorders” (MaineHealth, priority 2018, dated 2025)
# Test system: Primary human subcutaneous white adipocytes
# Assay: UCP1 qPCR in primary human subcutaneous white adipocytes
# Type: cell-based
# Conditions: treated with SB
# Description: All primary cell lines isolated from WAT were generated from outgrowth of the stromal vascular fraction and purchased from commercial vendors. All cell lines were validated to be at least 95% positive for adipogenic precursors as determined by flow cytometry for PDGFRα. Human white preadipocytes (HWP-c) cells, purchased from PromoCell (C-12730), were isolated from subcutaneous adipose tissue of a person with a BMI of 28. Normal human preadipocytes, purchased from Lonza (PT-5020), were isolated from subcutaneous adipose tissue of a person with a BMI of 21. Type 2 diabetic human preadipocytes, purchased from Lonza (PT-5022), were isolated from subcutaneous adipose tissue of a person with a BMI of 42.1. Type 2 diabetic human preadipocytes, purchased from Zenbio (OPD-F-3), were isolated from omental adipose tissue of a person with a BMI of 38.6. Type 2 diabetic human preadipocytes, purchased from Zenbio (SPD-F-3), were isolated from subcutaneous adipose tissue of a person with a BMI of 53.5. Cryopreserved cells were thawed and seeded in a 100×20 mm TC dish and treated as passage 0. Primary adipogenic precursors were expanded in DMEM containing 10% fetal bovine serum. Medium was changed daily and cells were cultured at 37° C. in a 5% CO2 incubator. Upon 80% confluence, cells are split and passaged at a ratio of 1:6 (Passage 1). […]
smiles,measurement,value
"NC(=O)c1ccc(-c2nc(-c3ccc4c(c3)OCO4)c(-c3ccccn3)[nH]2)cc1 [SB, SB431542]",UCP1 expression,enhanced expression
